# Test results published in patent US20080293676A1, “Insecticidal Agents Based on Selected Insecticides and Safeners” (priority 2004, published 2008).
# Tests used:
# Assay type in all cases: in vivo
# [1] = system: caterpillars of the army worm (Spodoptera frugiperda); assay: Spodoptera frugiperda test, spray treatment to runoff on corn plants
# From the text: (§1) The expected activity for a given combination of two active ingredients can be calculated (cf. Colby, S. R.; “Calculating Synergistic and Antagonistic Responses of Herbicide Combinations”, Weeds 15, pages 20-22, 1967):
# (§2) If • x=the kill rate, expressed in % of the untreated control, when employing active ingredient A at an application rate of m ppm, • Y=the kill rate, expressed in % of the untreated control, when employing active ingredient B at an application rate of n ppm, and • E=the kill rate, expressed in % of the untreated control, when employing active ingredients A and B at application rates of m and n ppm, then
# (§3) If the actual insecticidal kill rate is higher than the calculated one, the kill of the combination is superadditive, i.e. a synergistic effect is present. In this case, the kill rate that is actually observed has to be higher than the value, calculated using the formula above, for the expected kill rate (E).
# (§4) An appropriate solution is prepared by mixing 1 part by weight of formulation with the stated amount of water and adjuvant, and diluting the concentrate with water to the desired concentration.
# b) Spodoptera frugiperda Test
# Corn plants (Zea mais) are sprayed to runoff with the desired use concentration and are populated with caterpillars of the army worm (Spodoptera frugiperda) while the leaves are still wet.
# (§5) After the desired time the kill in % is determined in each case. In this context, 100% means that all of the larvae have been killed; 0% means that no larvae have been killed. The kill figures determined are calculated in accordance with the Colby formula described above.
# [2] = system: cotton aphid (Aphis gossypii); assay: Aphis gossypii test, spray treatment to runoff on infested cotton plants
# From the text: as §1, §2, §3, §4
# Cotton plants (Gossypium herbaceum) heavily infested by the cotton aphid (Aphis gossypii) are sprayed to runoff with the desired concentration of the application solution.
# as §5
# [3] = system: larvae of the cabbage moth (Plutella xylostella); assay: Plutella xylostella test, spray treatment to runoff on cabbage plants; details: Table B
# From the text: as §1, §2, §3, §4
# c) Plutella xylostella Test
# Cabbage plants (Brassica pekinesis) are sprayed to runoff with the desired use concentration and are populated with larvae of the cabbage moth (Plutella xylostella) while the leaves are still wet.
# as §5
# [4] = system: caterpillars of the cotton boll worm (Heliothis armigera); assay: Heliothis armigera test, spray treatment to runoff on cotton plants; details: Table A, 4 ppm
# From the text: as §1, §2, §3, §4
# a) Heliothis armigera Test […]
# After the desired time the kill in % is determined in each case. […] The kill figures determined are calculated in accordance with the Colby formula described above.
# [5] = system: green peach aphid (Myzus persicae); assay: Myzus persicae test, spray treatment to runoff on infested bell pepper plants; details: for Kill in % after 1^d: Table E2
# From the text: as §1, §2, §3, §4
# Bell pepper plants (Capsicum sativum) heavily infested by the green peach aphid (Myzus persicae) are sprayed to runoff with the desired concentration of the application solution.
# as §5
compound,measurement,setting,value
"Clc1cc(Cl)nc(-c2ccccc2)n1 [Fenclorim, 4,6-dichloro-2-phenylpyrimidine]",Kill in % after 3^d,"[1]; Table C2, 100 ppm",0%
same,Kill in % after 3^d,"[2]; Table D1, 100 ppm",0%
same,Kill in % after 3^d,"[2]; Table D2, 100 ppm",0%
same,Kill in % after 7^d,[3]; 100 ppm,0%
Chlorpyrifos,Kill in % after 3^d,[4],0%
same,Kill in % after 3^d,"[1]; Table C1, 4 ppm",50%
same,Kill in % after 7^d,[3]; 4 ppm,0%
"CC1(C)OC(c2ccco2)CN1C(=O)C(Cl)Cl (stereo not shown) [Furilazole a.i., 3-dichloroacetyl-5-(2-furanyl)-2,2-dimethyloxazolidine]",Kill in % after 3^d,"[1]; Table C2, 100 ppm",0%
same,Kill in % after 3^d,"[2]; Table D1, 100 ppm",0%
same,Kill in % after 3^d,"[2]; Table D2, 100 ppm",0%
same,Kill in % after 1^d,[5]; 100 ppm,0%
CC1(C)[C@H](C(=O)O[C@H](C#N)c2cccc(Oc3ccccc3)c2)[C@@H]1C=C(Br)Br [Deltamethrin],Kill in % after 3^d,"[2]; Table D2, 0.8 ppm",15%
same,Kill in % after 1^d,[5]; 0.8 ppm,20%
"C=CCN(CC=C)C(=O)C(Cl)Cl [Dichlormid a.i., 2,2-dichloro-N,N-di-2-propenylacetamide]",Kill in % after 3^d,"[1]; Table C2, 50 ppm",0%
same,Kill in % after 3^d,"[2]; Table D1, 100 ppm",0%
CNC(=O)Oc1cc(C)c(SC)c(C)c1 [Methiocarb],Kill in % after 3^d,"[1]; Table C2, 20 ppm",17%
same,Kill in % after 7^d,[3]; 20 ppm,0%
"CC1(C)C(C=C(Cl)Cl)C1C(=O)OC(C#N)c1ccc(F)c(Oc2ccccc2)c1 (stereo not drawn) [β-Cyfluthrin, Beta-Cyfluthrin]",Kill in % after 3^d,"[2]; Table D1, 0.8 ppm",35%
same,Kill in % after 3^d,"[5]; Table E1, 0.8 ppm, after 3 d",10%
